From ChEMBL document CHEMBL3864167, “Structure-Activity Relationship, Drug Metabolism and Pharmacokinetics Properties Optimization, and in Vivo Studies of New Brain Penetrant Triple T-Type Calcium Channel Blockers” (J Med Chem, 2016)
≈ marks a conversion by molar mass, not a printed value.

Columns and labels:
[1] = Solubility of the compound at pH 7; type: physicochemical; conditions: buffer
[2] = Intrinsic clearance in human liver microsomes at 1 uM up to 15 mins in presence of NADPH by LC-MS-MS analysis; type: ADME; conditions: read-out: CLH
[3] = target: Voltage-dependent T-type calcium channel subunit alpha-1H (Homo sapiens, UniProt O95180); test: Channel blocking activity at recombinant human CaV 3.2 channel expressed in HEK293 cells assessed as inhibition of Ca2+ flux preincubated for 3 mins followed by CaCl2 addition by fluo-4 dye-based FLIPR assay; type: cell-based
[4] = target: Voltage-dependent T-type calcium channel subunit alpha-1I (Homo sapiens, UniProt Q9P0X4); test: Channel blocking activity at recombinant human CaV 3.3 channel expressed in HEK293 cells assessed as inhibition of Ca2+ flux preincubated for 3 mins followed by CaCl2 addition by fluo-4 dye-based FLIPR assay; type: cell-based
[5] = target: Voltage-dependent T-type calcium channel subunit alpha-1G (Homo sapiens, UniProt O43497); test: Channel blocking activity at recombinant human CaV 3.1 channel expressed in HEK293 cells assessed as inhibition of Ca2+ flux preincubated for 3 mins followed by CaCl2 addition by fluo-4 dye-based FLIPR assay; type: cell-based
[6] = Intrinsic clearance in Wistar rat liver microsomes at 1 uM up to 15 mins in presence of NADPH by LC-MS-MS analysis; type: ADME; conditions: read-out: CLH
MDR1 [7] = test: Apparent permeability from apical side to basolateral side in MDCK1 cells expressing MDR1; type: ADME, cell-based, Canis lupus familiaris; conditions: dog, MDCK-MDR1
MDR1 [8] = test: Efflux ratio for apparent permeability in MDCK1 cells expressing MDR1; type: ADME, cell-based, Canis lupus familiaris; conditions: dog, MDCK-MDR1
[9] = Dissociation constant, pKa of compound; type: physicochemical
MDR1 [10] = test: Apparent permeability from basolateral side to apical side in MDCK1 cells expressing MDR1; type: ADME, cell-based, Canis lupus familiaris; conditions: dog, MDCK-MDR1

Sequence of Voltage-dependent T-type calcium channel subunit alpha-1I (Q9P0X4 whole entry): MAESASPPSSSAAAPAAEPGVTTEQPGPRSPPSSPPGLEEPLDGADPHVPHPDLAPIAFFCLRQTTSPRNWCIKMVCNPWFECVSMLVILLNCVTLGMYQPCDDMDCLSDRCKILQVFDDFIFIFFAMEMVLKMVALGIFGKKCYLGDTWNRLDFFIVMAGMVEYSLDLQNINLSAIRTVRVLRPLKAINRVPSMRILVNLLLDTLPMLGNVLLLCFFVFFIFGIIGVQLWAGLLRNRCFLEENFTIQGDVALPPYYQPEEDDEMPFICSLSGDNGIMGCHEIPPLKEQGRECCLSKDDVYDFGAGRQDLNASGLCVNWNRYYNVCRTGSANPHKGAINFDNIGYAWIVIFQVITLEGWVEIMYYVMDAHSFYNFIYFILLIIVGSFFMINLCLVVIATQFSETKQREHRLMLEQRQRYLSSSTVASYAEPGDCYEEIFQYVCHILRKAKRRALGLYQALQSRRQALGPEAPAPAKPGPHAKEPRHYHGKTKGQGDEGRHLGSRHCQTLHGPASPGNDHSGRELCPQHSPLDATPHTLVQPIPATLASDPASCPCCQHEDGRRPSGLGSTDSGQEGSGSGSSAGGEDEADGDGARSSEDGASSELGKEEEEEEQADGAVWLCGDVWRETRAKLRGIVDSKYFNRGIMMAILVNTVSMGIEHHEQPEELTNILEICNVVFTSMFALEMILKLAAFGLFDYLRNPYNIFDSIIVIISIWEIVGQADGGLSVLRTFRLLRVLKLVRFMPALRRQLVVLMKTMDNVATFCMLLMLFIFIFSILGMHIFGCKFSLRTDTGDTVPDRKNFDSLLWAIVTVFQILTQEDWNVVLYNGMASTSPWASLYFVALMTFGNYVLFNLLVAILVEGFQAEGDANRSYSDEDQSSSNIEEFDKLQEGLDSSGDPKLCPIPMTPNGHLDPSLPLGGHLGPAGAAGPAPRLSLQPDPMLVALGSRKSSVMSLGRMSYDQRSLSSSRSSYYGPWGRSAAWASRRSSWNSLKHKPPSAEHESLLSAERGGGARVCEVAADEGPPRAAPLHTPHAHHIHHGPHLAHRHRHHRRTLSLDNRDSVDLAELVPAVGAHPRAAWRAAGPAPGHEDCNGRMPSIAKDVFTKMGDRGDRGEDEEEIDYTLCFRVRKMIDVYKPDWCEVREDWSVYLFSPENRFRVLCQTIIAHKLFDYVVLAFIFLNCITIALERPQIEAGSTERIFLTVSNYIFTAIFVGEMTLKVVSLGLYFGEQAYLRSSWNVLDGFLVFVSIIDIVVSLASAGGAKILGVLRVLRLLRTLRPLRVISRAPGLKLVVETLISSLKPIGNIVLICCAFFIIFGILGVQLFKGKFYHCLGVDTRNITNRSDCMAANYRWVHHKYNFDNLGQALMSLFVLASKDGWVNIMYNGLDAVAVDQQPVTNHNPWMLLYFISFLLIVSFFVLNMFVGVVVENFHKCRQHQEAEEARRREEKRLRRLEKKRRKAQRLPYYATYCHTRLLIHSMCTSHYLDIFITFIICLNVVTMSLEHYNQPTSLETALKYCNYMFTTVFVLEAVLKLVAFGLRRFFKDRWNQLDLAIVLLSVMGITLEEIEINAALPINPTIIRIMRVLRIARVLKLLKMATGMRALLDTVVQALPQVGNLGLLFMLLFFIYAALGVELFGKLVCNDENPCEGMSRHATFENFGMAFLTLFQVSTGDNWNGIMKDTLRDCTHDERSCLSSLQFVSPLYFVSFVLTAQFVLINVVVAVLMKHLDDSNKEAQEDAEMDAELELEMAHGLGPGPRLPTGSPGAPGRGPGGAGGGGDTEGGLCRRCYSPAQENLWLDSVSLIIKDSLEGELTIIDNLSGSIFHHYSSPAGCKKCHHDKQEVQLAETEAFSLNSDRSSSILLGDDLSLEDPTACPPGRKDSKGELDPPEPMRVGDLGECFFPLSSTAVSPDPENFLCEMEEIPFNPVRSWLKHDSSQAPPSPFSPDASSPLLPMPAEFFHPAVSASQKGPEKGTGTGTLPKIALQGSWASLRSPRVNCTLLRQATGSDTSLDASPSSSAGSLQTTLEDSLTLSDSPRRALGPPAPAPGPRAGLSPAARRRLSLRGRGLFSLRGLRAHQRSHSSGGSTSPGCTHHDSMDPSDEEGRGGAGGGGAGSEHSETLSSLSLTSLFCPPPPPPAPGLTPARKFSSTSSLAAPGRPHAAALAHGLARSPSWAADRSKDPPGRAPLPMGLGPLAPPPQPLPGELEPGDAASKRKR
Sequence of Voltage-dependent T-type calcium channel subunit alpha-1G (O43497 whole entry): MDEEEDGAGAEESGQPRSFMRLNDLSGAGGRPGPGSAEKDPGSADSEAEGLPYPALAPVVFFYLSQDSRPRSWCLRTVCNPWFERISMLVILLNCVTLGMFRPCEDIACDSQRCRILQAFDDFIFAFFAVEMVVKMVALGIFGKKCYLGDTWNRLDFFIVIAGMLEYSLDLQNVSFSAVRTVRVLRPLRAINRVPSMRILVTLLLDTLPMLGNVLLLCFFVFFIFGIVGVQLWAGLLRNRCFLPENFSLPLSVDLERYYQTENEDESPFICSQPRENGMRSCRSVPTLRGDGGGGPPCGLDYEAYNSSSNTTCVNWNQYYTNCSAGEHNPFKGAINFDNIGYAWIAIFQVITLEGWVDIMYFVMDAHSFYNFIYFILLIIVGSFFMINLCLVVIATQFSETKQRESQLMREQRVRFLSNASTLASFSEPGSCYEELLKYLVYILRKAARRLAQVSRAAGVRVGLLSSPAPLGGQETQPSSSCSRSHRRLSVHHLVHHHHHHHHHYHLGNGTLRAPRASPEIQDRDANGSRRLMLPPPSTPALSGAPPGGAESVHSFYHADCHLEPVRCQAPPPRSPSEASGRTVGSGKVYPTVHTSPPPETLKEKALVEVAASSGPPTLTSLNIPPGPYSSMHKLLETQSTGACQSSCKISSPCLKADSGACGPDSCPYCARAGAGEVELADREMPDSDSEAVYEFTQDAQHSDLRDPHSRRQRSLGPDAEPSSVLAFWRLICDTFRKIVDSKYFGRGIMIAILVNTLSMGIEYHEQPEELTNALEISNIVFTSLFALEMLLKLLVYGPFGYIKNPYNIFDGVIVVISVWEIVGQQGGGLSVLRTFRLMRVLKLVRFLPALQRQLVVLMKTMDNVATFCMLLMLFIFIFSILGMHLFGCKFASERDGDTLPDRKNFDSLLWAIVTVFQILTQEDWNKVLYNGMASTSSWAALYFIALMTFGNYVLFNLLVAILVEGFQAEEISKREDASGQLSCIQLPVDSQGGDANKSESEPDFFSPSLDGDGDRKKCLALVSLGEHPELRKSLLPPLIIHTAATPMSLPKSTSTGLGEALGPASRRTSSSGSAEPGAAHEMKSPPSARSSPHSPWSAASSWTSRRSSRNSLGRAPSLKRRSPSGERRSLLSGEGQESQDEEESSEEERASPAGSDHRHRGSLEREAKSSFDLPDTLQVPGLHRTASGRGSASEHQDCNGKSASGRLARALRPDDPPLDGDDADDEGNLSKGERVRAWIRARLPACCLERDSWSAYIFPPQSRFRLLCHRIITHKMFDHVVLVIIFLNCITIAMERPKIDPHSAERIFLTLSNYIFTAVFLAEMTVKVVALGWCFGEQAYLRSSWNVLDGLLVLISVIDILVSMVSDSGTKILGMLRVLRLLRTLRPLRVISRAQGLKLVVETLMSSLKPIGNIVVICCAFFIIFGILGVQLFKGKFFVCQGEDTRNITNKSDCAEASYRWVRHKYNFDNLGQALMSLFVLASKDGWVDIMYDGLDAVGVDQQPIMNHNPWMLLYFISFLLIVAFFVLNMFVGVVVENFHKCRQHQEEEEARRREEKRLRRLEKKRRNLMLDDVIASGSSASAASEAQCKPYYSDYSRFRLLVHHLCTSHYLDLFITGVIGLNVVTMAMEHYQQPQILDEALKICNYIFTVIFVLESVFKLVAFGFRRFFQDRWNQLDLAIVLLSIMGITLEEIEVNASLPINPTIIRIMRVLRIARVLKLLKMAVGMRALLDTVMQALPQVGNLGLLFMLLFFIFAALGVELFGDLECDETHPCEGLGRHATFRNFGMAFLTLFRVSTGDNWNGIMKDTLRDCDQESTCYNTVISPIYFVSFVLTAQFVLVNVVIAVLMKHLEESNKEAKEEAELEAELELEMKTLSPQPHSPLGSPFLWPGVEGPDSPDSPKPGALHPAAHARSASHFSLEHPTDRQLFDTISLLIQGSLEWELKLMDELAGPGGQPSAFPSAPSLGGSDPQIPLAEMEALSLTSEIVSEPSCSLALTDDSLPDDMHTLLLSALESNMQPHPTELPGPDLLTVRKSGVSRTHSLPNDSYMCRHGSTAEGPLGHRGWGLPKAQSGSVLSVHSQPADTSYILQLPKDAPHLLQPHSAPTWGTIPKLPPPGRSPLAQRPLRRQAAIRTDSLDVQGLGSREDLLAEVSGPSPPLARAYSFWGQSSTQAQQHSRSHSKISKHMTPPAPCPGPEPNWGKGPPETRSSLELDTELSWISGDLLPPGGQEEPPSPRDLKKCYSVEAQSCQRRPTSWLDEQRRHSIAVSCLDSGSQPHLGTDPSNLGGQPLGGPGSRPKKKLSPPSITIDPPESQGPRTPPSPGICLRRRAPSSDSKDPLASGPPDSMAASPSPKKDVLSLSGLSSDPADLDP

| Structure (SMILES) | solubility [1] | microsomal CLint at 1 µM [2] | IC50 [3] | IC50 [4] | IC50 [5] | microsomal CLint at 1 µM [6] | Papp A→B (MDR1 [7]) | efflux ratio (MDR1 [8]) | pKa [9] | Papp B→A (MDR1 [10]) |
| --- | --- | --- | --- | --- | --- | --- | --- | --- | --- | --- |
| C[C@@H]1CN(CC2CCCCO2)c2ccccc2[C@H](C)N1C(=O)Nc1cccnc1 (mixture of isomers) | 248 µg/mL | 720 µL/min/mg | 2670 nM | 243 nM | 875 nM | – | – | – | – | – |
| C[C@@H]1CN(Cc2ccccc2)c2cnccc2[C@H](C)N1C(=O)CCc1ccc(F)cc1 (racemic) | – | 907 µL/min/mg | 225 nM | 25 nM | 196 nM | > 1250 µL/min/mg | – | – | – | – |
| C[C@@H]1CN(Cc2ccccc2F)c2cnccc2[C@H](C)N1C(=O)NCc1ccccc1 (racemic) | – | 179 µL/min/mg | 95 nM | 31 nM | 47 nM | > 1250 µL/min/mg | – | – | – | – |
| C[C@@H]1CN(Cc2ccc(C(F)(F)F)o2)c2cnccc2[C@H](C)N1C(=O)NCc1ccccc1 (racemic) | – | 247 µL/min/mg | 44 nM | 10 nM | 37 nM | 1180 µL/min/mg | – | – | – | – |
| C[C@@H]1CN(CCOC(C)(C)C)c2ccccc2[C@H](C)N1C(=O)Nc1cccnc1 (racemic) | 81 µg/mL (≈ 204 µM) | 1230 µL/min/mg | 91 nM | 23 nM | 108 nM | – | – | – | – | – |
| COc1ccc2c(c1)N(Cc1ccccc1)C[C@@H](C)N(C(=O)Nc1cccnc1)[C@H]2C (racemic) | – | 649 µL/min/mg | 1600 nM | 610 nM | 627 nM | – | – | – | – | – |
| C[C@@H]1CN(Cc2ccccc2)c2ccccc2[C@H](C)N1C(=O)Nc1cccnc1 (racemic) | 21 to 39 µg/mL (≈ 54.3 to 101 µM) | > 1250 µL/min/mg | 61 nM | 14 nM | 42 nM | – | – | – | – | – |
| C[C@@H]1CN(Cc2ccccc2)c2cccc(F)c2[C@H](C)N1C(=O)NC1COC1 (racemic) | – | 375 µL/min/mg | 59 nM | 13 nM | 40 nM | – | – | – | – | – |
| C[C@@H]1CN(Cc2ccccc2)c2cccc(F)c2[C@H](C)N1C(=O)Nc1cccnc1 (racemic) | – | 628 µL/min/mg | 52 nM | 10 nM | 20 nM | – | – | – | – | – |
| C[C@@H]1CN(Cc2cnc(C(F)(F)F)s2)c2cccc(F)c2[C@H](C)N1C(=O)CCc1cccnc1 (racemic) | – | 193 µL/min/mg | 93 nM | 20 nM | 115 nM | – | – | – | – | – |
| C[C@@H]1CN(Cc2ccccc2F)c2ccccc2[C@H](C)N1C(=O)Nc1cccnc1 (racemic) | – | 1200 µL/min/mg | 11 nM | 5 nM | 4 nM | – | – | – | – | – |
| C[C@@H]1CN(Cc2ccccc2)c2cccc(F)c2[C@H](C)N1C(=O)CCc1cccnc1 (racemic) | – | 562 µL/min/mg | 52 nM | 17 nM | 47 nM | – | – | – | – | – |
| C[C@@H]1CN(Cc2ccccc2)c2c(F)cccc2[C@H](C)N1C(=O)Nc1cccnc1 (racemic) | – | 720 µL/min/mg | 205 nM | 17 nM | 178 nM | – | – | – | – | – |
| C[C@@H]1CN(Cc2ccccc2)c2ccccc2[C@H](C)N1C(=O)Cc1cncs1 (racemic) | 21 to 39 µg/mL (≈ 53.6 to 99.6 µM) | > 1250 µL/min/mg | 55 nM | 6 nM | 34 nM | – | – | – | – | – |
| C[C@@H]1CN(Cc2ccccc2)c2ccccc2[C@H](C)N1C(=O)N1CCOCC1 (racemic) | 21 to 39 µg/mL (≈ 55.3 to 103 µM) | > 1250 µL/min/mg | 58 nM | 9 nM | 26 nM | – | – | – | – | – |
| CC(C)CCN1C[C@@H](C)N(C(=O)CCc2cccnc2)[C@@H](C)c2c(F)cccc21 (racemic) | – | 357 µL/min/mg | 66 nM | 52 nM | 45 nM | – | – | – | – | – |
| C[C@@H]1CN(Cc2cccc(F)c2F)c2cnccc2[C@H](C)N1C(=O)NCc1ccccc1 (racemic) | – | 212 µL/min/mg | 72 nM | 13 nM | 38 nM | – | – | – | – | – |
| C[C@@H]1CN(Cc2ccccc2)c2cnccc2[C@H](C)N1C(=O)Nc1cccnc1 (racemic) | – | 93 µL/min/mg | 860 nM | 306 nM | 360 nM | 562 µL/min/mg | – | – | – | – |
| C[C@@H]1CN(Cc2ccccc2)c2cc(C#N)ccc2[C@H](C)N1C(=O)Nc1cccnc1 (racemic) | – | 418 µL/min/mg | 860 nM | 308 nM | 582 nM | – | – | – | – | – |
| COc1ccc2c(c1)[C@H](C)N(C(=O)Nc1cccnc1)[C@H](C)CN2Cc1ccccc1 (racemic) | – | 521 µL/min/mg | 530 nM | 100 nM | 390 nM | – | – | – | – | – |
| [2H]C([2H])(c1ccccc1)N1C[C@@H](C)N(C(=O)NCc2ccccc2)[C@@H](C)c2ccncc21 (racemic) | – | 186 µL/min/mg | 230 nM | 15 nM | 260 nM | > 1250 µL/min/mg | – | – | – | – |

| Structure (SMILES) | solubility [1] | microsomal CLint at 1 µM [2] | IC50 [3] | IC50 [4] | IC50 [5] | microsomal CLint at 1 µM [6] | Papp A→B (MDR1 [7]) | efflux ratio (MDR1 [8]) | pKa [9] | Papp B→A (MDR1 [10]) |
| --- | --- | --- | --- | --- | --- | --- | --- | --- | --- | --- |
| C[C@@H]1CN(Cc2ccccc2)c2ccccc2[C@H](C)N1C(=O)NC1COC1 (racemic) | 148 µg/mL (≈ 405 µM) | 539 µL/min/mg | 61 nM | 12 nM | 26 nM | – | – | – | – | – |
| [2H]C([2H])(c1ccccc1)N1C[C@@H](C)N(C(=O)Nc2cccnc2)[C@@H](C)c2ccncc21 (racemic) | – | 59 µL/min/mg | 815 nM | 148 nM | 441 nM | 855 µL/min/mg | – | – | – | – |
| C[C@@H]1CN(Cc2ccccc2)c2nc(C(F)(F)F)ccc2[C@H](C)N1C(=O)NCc1ccccc1 (racemic) | – | 531 µL/min/mg | 104 nM | 281 nM | 57 nM | – | – | – | – | – |
| Cc1ccc2c(n1)N(Cc1ccccc1)C[C@@H](C)N(C(=O)NCc1ccccc1)[C@H]2C (racemic) | – | 1240 µL/min/mg | 28 nM | 33 nM | 18 nM | – | – | – | – | – |
| C[C@@H]1CN(Cc2ccccc2)c2ccccc2[C@H](C)N1C(=O)CCc1cccnc1 (racemic) | – | > 1250 µL/min/mg | 38 nM | 10 nM | 31 nM | – | – | – | – | – |
| CCN1C[C@@H](C)N(C(=O)NCc2ccccc2)[C@@H](C)c2ccccc21 (racemic) | – | > 1250 µL/min/mg | 922 nM | 139 nM | 754 nM | – | – | – | – | – |
| C[C@@H]1CN(Cc2ccccc2)c2cc(F)ccc2[C@H](C)N1C(=O)Nc1cccnc1 (racemic) | – | > 1250 µL/min/mg | 12 nM | 4 nM | 6 nM | – | – | – | – | – |
| C[C@@H]1CN(Cc2cnc(C(F)(F)F)s2)c2ccccc2[C@H](C)N1C(=O)NCc1ccccc1 (racemic) | – | > 1250 µL/min/mg | 15 nM | 6 nM | 13 nM | – | – | – | – | – |
| [2H]C([2H])(c1ccccc1)N1C[C@@H](C)N(C(=O)Nc2cccnc2)[C@@H](C)c2ccccc21 (racemic) | – | 1110 µL/min/mg | 25 nM | 4 nM | 27 nM | – | – | – | – | – |
| C[C@@H]1CN(Cc2cccnc2F)c2ccccc2[C@H](C)N1C(=O)NCc1ccccc1 (racemic) | – | > 1250 µL/min/mg | 49 nM | 10 nM | 53 nM | – | – | – | – | – |
| COc1ccc(CNC(=O)N2[C@H](C)CN(Cc3ccc(C(F)(F)F)o3)c3cnccc3[C@@H]2C)cc1 (racemic) | – | 119 µL/min/mg | 24 nM | 11 nM | 13 nM | 447 µL/min/mg | – | – | – | – |
| C[C@@H]1CN(Cc2ccc(F)cc2)c2ccccc2[C@H](C)N1C(=O)Nc1cccnc1 (racemic) | – | > 1250 µL/min/mg | 31 nM | 7 nM | 25 nM | – | – | – | – | – |
| C[C@@H]1CN(Cc2ccccc2)c2ccc(F)cc2[C@H](C)N1C(=O)Nc1cccnc1 (racemic) | – | > 1250 µL/min/mg | 112 nM | 8 nM | 68 nM | – | – | – | – | – |
| C[C@@H]1CN(Cc2ccc(C(F)(F)F)o2)c2ccccc2[C@H](C)N1C(=O)NCc1ccccc1 (racemic) | – | > 1250 µL/min/mg | 13 nM | 6 nM | 7 nM | – | – | – | – | – |
| C[C@@H]1CN(Cc2ccc(C(F)(F)F)o2)c2ccccc2[C@H](C)N1C(=O)Nc1cccnc1 (racemic) | – | > 1250 µL/min/mg | 14 nM | 9 nM | 4 nM | – | – | – | – | – |
| C[C@@H]1CN(Cc2ccccc2)c2ncccc2[C@H](C)N1C(=O)NCc1ccccc1 (racemic) | – | 1060 µL/min/mg | 31 nM | 8 nM | 15 nM | – | – | – | – | – |
| C[C@@H]1CN(Cc2ccccc2)c2cncc(F)c2[C@H](C)N1C(=O)NCc1ccccc1 (racemic) | – | 185 µL/min/mg | 72 nM | 9 nM | 140 nM | – | 26.3 ×10⁻⁶ cm/s | 2.3 | 4.2 | 61 ×10⁻⁶ cm/s |
| O=C(NCc1ccccc1)N1CCN(Cc2ccccc2)c2ccccc2C1 | – | > 1250 µL/min/mg | 392 nM | 214 nM | 305 nM | – | – | – | – | – |
| C[C@@H]1CN(Cc2ccccc2)c2cc(OCC(F)(F)F)ccc2[C@H](C)N1C(=O)Nc1cccnc1 (racemic) | – | > 1250 µL/min/mg | 790 nM | 3560 nM | 187 nM | – | – | – | – | – |
| C[C@@H]1CN(Cc2cnc(C(F)(F)F)s2)c2ccccc2[C@H](C)N1C(=O)CCc1cccnc1 (racemic) | – | 332 µL/min/mg | 30 nM | 13 nM | 40 nM | – | – | – | – | – |
| COc1ccc(CNC(=O)N2[C@H](C)CN(Cc3ccccc3)c3cnccc3[C@@H]2C)cc1 (racemic) | – | 189 µL/min/mg | 48 nM | 12 nM | 79 nM | 1140 µL/min/mg | – | – | – | – |
